# Paper PMC10648875 (Antimicrobial Agents and Chemotherapy, 2023)
# Values joined by “and” are separate entries in the source; they are usually repeats but may differ in a detail not shown here. Identical values can stand only once. Like-named read-outs stand apart in the source and are kept apart here.
# How the values were obtained:
# [1] = system: PAM4743 producing CTX-M-15; assay: MIC, engineered isogenic strain; assay type: cell-based, P. aeruginosa; conditions: CTX-M-15, class A; BLIs at fixed 4 µg/mL
# [2] = system: Escherichia coli NCTC 13353 (ECM7514), CTX-M-15; assay: MIC, reference strain; assay type: cell-based; conditions: for MIC: Escherichia coli, NCTC13353, CTX-M-15, BLI at the fixed concentration in brackets, read-out: MIC
# Protocol: (§1) Other BL/BLI combinations were tested at their recommended BLI concentrations. MIC values for the partner antibiotics and BLIs alone were also determined (Table 2; Table S1). All investigational and marketed BLIs enhanced the potency of antibiotics according to their spectrum of inhibition. MIC values against CLSI-approved QC strains were within acceptable ranges for drugs and combinations tested (Table 3).
# (§2) Isolates were tested for antimicrobial susceptibility using the broth microdilution methodology per CLSI M07 (2018) guidelines ([40]). JMI Laboratories produced frozen-form 96-well panels with cation-adjusted Mueller-Hinton broth as the testing medium. Current CLSI quality assurance practices were followed when performing the susceptibility tests. MIC values were validated by concurrently testing the following CLSI-recommended ([27]) QC reference strains: E. coli NCTC 13353 (CTX-M-15), Klebsiella pneumoniae ATCC BAA-2814 (KPC-3), Klebsiella pneumoniae ATCC BAA-1705 (KPC-2), and K. pneumoniae ATCC 700603 (SHV-18). The inoculum density during susceptibility testing was monitored by bacterial colony counts. Where applicable, QC ranges for tested reference strains were those approved or published by the CLSI ([27]). Meropenem was purchased from Carbosynth; ceftolozane was synthesized at Acme Bioscience, Palo Alto, CA, USA; all other antibiotics were from Sigma Aldrich. Xeruborbactam was synthesized at Qpex Biopharma, San Diego, CA, USA. Avibactam was purchased from eNovation, Chemicals LLC, Bridgewater, NJ, USA. Vaborbactam was synthesized at The Medicines Company, San Diego, CA. Relebactam, taniborbactam, and relebactam were synthesized at Acme Bioscience.
# [3] = system: E. coli CDC 0069 (EC1106), NDM-1; assay: MIC, reference strain; assay type: cell-based; conditions: Escherichia coli, BLI at the fixed concentration in brackets, read-out: MIC
# Protocol: as §1
# as §2, with “([27]).” for “([27]). Meropenem was purchased from Carbosynth; ceftolozane was synthesized at Acme Bioscience, Palo Alto, CA, USA; all other antibiotics were from Sigma Aldrich. Xeruborbactam was synthesized at Qpex Biopharma, San Diego, CA, USA. Avibactam was purchased from eNovation, Chemicals LLC, Bridgewater, NJ, USA. Vaborbactam was synthesized at The Medicines Company, San Diego, CA. Relebactam, taniborbactam, and relebactam were synthesized at Acme Bioscience.”
# [4] = system: K. pneumoniae ATCC BAA-1705 (KPM1123), KPC-2; assay: MIC, reference strain; assay type: cell-based; conditions: for MIC: Klebsiella pneumoniae, ATCCBAA1705, KPC-2, BLI at the fixed concentration in brackets, read-out: MIC; for MIC (number of observations): Table S1, repeated QC testing
# Protocol: as §1
# as §2, with “([27]).” for “([27]). Meropenem was purchased from Carbosynth; ceftolozane was synthesized at Acme Bioscience, Palo Alto, CA, USA; all other antibiotics were from Sigma Aldrich. Xeruborbactam was synthesized at Qpex Biopharma, San Diego, CA, USA. Avibactam was purchased from eNovation, Chemicals LLC, Bridgewater, NJ, USA. Vaborbactam was synthesized at The Medicines Company, San Diego, CA. Relebactam, taniborbactam, and relebactam were synthesized at Acme Bioscience.”
# [5] = system: K. pneumoniae ATCC BAA-2814 (KP1074), KPC-3; assay: MIC, reference strain; assay type: cell-based; conditions: for MIC: Klebsiella pneumoniae, ATCCBAA2814, KPC-3, BLI at the fixed concentration in brackets, read-out: MIC; for MIC (number of observations): Table S1, repeated QC testing
# Protocol: as §1
# as §2, with “([27]).” for “([27]). Meropenem was purchased from Carbosynth; ceftolozane was synthesized at Acme Bioscience, Palo Alto, CA, USA; all other antibiotics were from Sigma Aldrich. Xeruborbactam was synthesized at Qpex Biopharma, San Diego, CA, USA. Avibactam was purchased from eNovation, Chemicals LLC, Bridgewater, NJ, USA. Vaborbactam was synthesized at The Medicines Company, San Diego, CA. Relebactam, taniborbactam, and relebactam were synthesized at Acme Bioscience.”
# [6] = system: K. pneumoniae CDC 0135 (KP1291), VIM-1; assay: MIC, reference strain; assay type: cell-based; conditions: Klebsiella pneumoniae, BLI at the fixed concentration in brackets, read-out: MIC
# Protocol: as §1
# as §2, with “([27]).” for “([27]). Meropenem was purchased from Carbosynth; ceftolozane was synthesized at Acme Bioscience, Palo Alto, CA, USA; all other antibiotics were from Sigma Aldrich. Xeruborbactam was synthesized at Qpex Biopharma, San Diego, CA, USA. Avibactam was purchased from eNovation, Chemicals LLC, Bridgewater, NJ, USA. Vaborbactam was synthesized at The Medicines Company, San Diego, CA. Relebactam, taniborbactam, and relebactam were synthesized at Acme Bioscience.”
# [7] = system: Klebsiella pneumoniae ATCC 700603 (KPM2881), SHV-18; assay: MIC, reference strain; assay type: cell-based; conditions: for MIC: Klebsiella pneumoniae, ATCC700603, SHV-18, BLI at the fixed concentration in brackets, read-out: MIC
# Protocol: as §1
# as §2, with “([27]).” for “([27]). Meropenem was purchased from Carbosynth; ceftolozane was synthesized at Acme Bioscience, Palo Alto, CA, USA; all other antibiotics were from Sigma Aldrich. Xeruborbactam was synthesized at Qpex Biopharma, San Diego, CA, USA. Avibactam was purchased from eNovation, Chemicals LLC, Bridgewater, NJ, USA. Vaborbactam was synthesized at The Medicines Company, San Diego, CA. Relebactam, taniborbactam, and relebactam were synthesized at Acme Bioscience.”
# [8] = system: P. aeruginosa BAA-3197 (PA5257), KPC-2; assay: MIC, reference strain; assay type: cell-based; conditions: for MIC: Pseudomonas aeruginosa, BAA3197, KPC-2, BLI at the fixed concentration in brackets, read-out: MIC
# [9] = system: surveillance isolates of carbapenem-resistant strains of Enterobacterales; assay: MIC testing of SENTRY surveillance CRE isolates (Table 4, Table S4); assay type: cell-based; conditions: for % Inhibited: at ≤8 µg/mL β-lactam (IMP/REL ≤1/4, MEM/VAB ≤4/8 (≤8/8) µg/mL), footnote b
# [10] = All surveillance CRE, read-out: MIC50
# [11] = All surveillance CRE, read-out: MIC90
# [12] = Non-CP CRE subset, read-out: MIC50
# [13] = Non-CP CRE subset, read-out: MIC90
smiles,measurement,setting,value
"CO/N=C(\C(=O)N[C@@H]1C(=O)N2C(C(=O)[O-])=C(C[N+]3(C)CCCC3)CS[C@H]12)c1csc(N)n1 [FEP, cefepime]",MIC,[1],> 64 µg/mL
same,MIC,[2],> 64 µg/mL
same,MIC (number of observations),"[2]; Table S1, repeated QC testing",32 (1)-64(5)->128 (10) µg/ml
same,MIC,[3],64 µg/mL
same,MIC,[4],32 µg/mL
same,MIC (number of observations),[4],32 (40)->32(6) µg/ml
same,MIC,[5],> 64 µg/mL
same,MIC (number of observations),[5],> 32 µg/mL
same,MIC,[6],> 64 µg/mL
same,MIC,[7],1 µg/mL
same,MIC (number of observations),"[7]; Table S1, repeated QC testing",0.5(1)-1(8)-2(1)-4(1) µg/ml
same,MIC,[8],> 64 µg/mL
same,MIC (number of observations),"[8]; Table S1, repeated QC testing",> 128 µg/mL
same,MIC50,[9],> 32 µg/mL
same,MIC90,[9],> 32 µg/mL
same,MIC50,[9]; [10],> 32 µg/mL
same,MIC90,[9]; [11],> 32 µg/mL
same,% Inhibited,[9]; KPC subset,11.70%
same,MIC50,"[9]; KPC subset, read-out: MIC50",> 32 µg/mL
same,MIC90,"[9]; KPC subset, read-out: MIC90",> 32 µg/mL
same,% Inhibited,[9]; MBL subset,0.00%
same,MIC50,"[9]; MBL subset, read-out: MIC50",> 32 µg/mL
same,MIC90,"[9]; MBL subset, read-out: MIC90",> 32 µg/mL
same,% Inhibited,[9]; NDM subset,0.00%
same,MIC50,"[9]; NDM subset, read-out: MIC50",> 32 µg/mL
same,MIC90,"[9]; NDM subset, read-out: MIC90",> 32 µg/mL
same,% Inhibited,[9]; No MBL subset,15.50%
same,MIC50,"[9]; No MBL subset, read-out: MIC50",> 32 µg/mL
same,MIC90,"[9]; No MBL subset, read-out: MIC90",> 32 µg/mL
same,% Inhibited,[9]; Non-CP CRE subset,15.20%
same,MIC50,[9]; [12],> 32 µg/mL
same,MIC90,[9]; [13],> 32 µg/mL
same,% Inhibited,[9]; OXA-48 subset,21.50%
same,MIC50,"[9]; OXA-48 subset, read-out: MIC50",> 32 µg/mL
same,MIC90,"[9]; OXA-48 subset, read-out: MIC90",> 32 µg/mL
same,% Inhibited,[9]; VIM subset,0.00%
same,MIC50,"[9]; VIM subset, read-out: MIC50",32 µg/mL
same,MIC90,"[9]; VIM subset, read-out: MIC90",> 32 µg/mL
"C[C@@H](O)[C@H]1C(=O)N2C(C(=O)O)=C(S[C@@H]3CN[C@H](C(=O)N(C)C)C3)[C@H](C)[C@H]12 [MEM, meropenem]",MIC,[1],0.25 µg/mL
same,MIC,[2],≤ 0.03 µg/mL
same,MIC,[3],32 µg/mL
same,MIC,[4],32 µg/mL
same,MIC (number of observations),[4],8 (2)-16 (16)-32 (28) µg/ml
same,MIC,[5],> 64 µg/mL
same,MIC (number of observations),[5],> 32 µg/mL
same,MIC,[6],8 µg/mL
same,MIC,[7],≤ 0.03 µg/mL
same,MIC,[8],> 64 µg/mL
same,MIC90,[9],16 and > 32
same,% Inhibited,[9]; All surveillance CRE,30.20%
same,MIC50,[9]; [10],32 µg/mL
same,MIC90,[9]; [11],> 32 µg/mL
same,% Inhibited,[9]; KPC subset,29.50%
same,MIC50,"[9]; KPC subset, read-out: MIC50",32 µg/mL
same,MIC90,"[9]; KPC subset, read-out: MIC90",> 32 µg/mL
same,% Inhibited,[9]; MBL subset,9.00%
same,MIC50,"[9]; MBL subset, read-out: MIC50",> 32 µg/mL
same,MIC90,"[9]; MBL subset, read-out: MIC90",> 32 µg/mL
same,% Inhibited,[9]; NDM subset,6.30%
same,MIC50,"[9]; NDM subset, read-out: MIC50",> 32 µg/mL
same,MIC90,"[9]; NDM subset, read-out: MIC90",> 32 µg/mL
same,% Inhibited,[9]; No MBL subset,39.40%
same,MIC50,"[9]; No MBL subset, read-out: MIC50",16 µg/mL
same,MIC90,"[9]; No MBL subset, read-out: MIC90",> 32 µg/mL
same,% Inhibited,[9]; Non-CP CRE subset,81.80%
same,MIC50,[9]; [12],8 µg/mL
same,MIC90,[9]; [13],16 µg/mL
same,% Inhibited,[9]; OXA-48 subset,37.20%
same,MIC50,"[9]; OXA-48 subset, read-out: MIC50",32 µg/mL
same,MIC90,"[9]; OXA-48 subset, read-out: MIC90",> 32 µg/mL
same,% Inhibited,[9]; VIM subset,35.00%
same,MIC50,"[9]; VIM subset, read-out: MIC50",16 µg/mL
same,MIC90,"[9]; VIM subset, read-out: MIC90",> 32 µg/mL
